In patent publication US9415104B2, “Combination therapy to enhance NK cell mediated cytotoxicity” (NOVO NORDISK A/S, priority 2008, dated 2016):

Experiments:
KIR2DL3 (human) = KIR2DL3 (human) (UniProt P43628)
KIR2DL2 (human) = KIR2DL2 (human) (UniProt P43627)
KIR2DL1 (human) = KIR2DL1 (human) (UniProt P43626)
U266 cells [1] = experiment: Europium release cytotoxicity assay, U266 target cells pre-incubated with lenalidomide (FIG. 6); assay type: cell-based, human; settings: U266 cultured with lenalidomide (5 µM) for 5 days vs not exposed; different E:T ratios
Procedure: U266 cells were cultured in RPMI medium with 10% human AB serum (complete medium) in the presence or absence of lenalidomide (5 µM) for 5 days, and then used as target cells in Europium release cytotoxicity assays.
(§1) The Europium release cytotoxicity assay was performed according to the instruction of DELFIA® EuTDA Cytotoxicity AD0116 kit (PerkinElmer).

U266 cells [2] = experiment: Europium release cytotoxicity assay, PBMC as effectors against U266 cells (FIG. 3, FIG. 4)
Procedure: The target cells were U266 cells. […] Lysis of U266 target cells is measured in the presence and absence of 10 μM lenalidomide.
Peripheral blood mononuclear cells (PBMC) were obtained from normal donors following a Ficoll gradient separation. These cells were incubated for 72 hours in lenalidomide (10 μmolL^−1) or DMSO as control, and then used as effector cells against U266 target cells in the presence or absence of 1-7F9 blocking antibody in Europium release cytotoxicity assays. Cytotoxicity assays were performed in the presence or absence of 30 μg/ml 1-7F9. In experiments investigating the combination, PBMC were treated with lenalidomide (10 μmolL^−1) or DMSO (control) for 72 hours, and then used as effector cells in the presence or absence of 1-7F9 (30 μgml^−1) in europium release assay.
Effector cells: PBMC and NK cells were collected from random donors. Target cells: The myeloma (MM) cell line U266 co-expresses class I and II HLA-C ligands. The K562 cell line is negative for HLA class I molecules and acts as negative control for 1-7F9 blocking experiment.
as §1

NK cells = experiment: Total NK cell numbers in PBMC culture; assay type: cell-based; settings: 10 μmol/L lenalidomide treatment vs DMSO treatment
Excerpt: The target cells were U266 cells.

[3] = test system: phospho-p44/42 (Erk1/2) Thr202/Tyr204; experiment: Western blot of cell lysates, densitometry normalized to GAPDH (FIG. 9); settings: 10 μmol/L lenalidomide; DMSO = 1.00; NK cells
p-SHIP1 (Tyr1020) = experiment: as above; settings: 10 μmol/L lenalidomide; DMSO = 1.00; NK cells
[4] = test system: NK cell receptors NKG2D, NKG2A, KIR2DL1/S1, KIR2DL2/L3; experiment: NK cell receptor expression by flow-cytometry (FIG. 5); assay type: cell-based; settings: purified NK cells cultured 72 hours in presence or absence of lenalidomide
Procedure: Referring now to FIG. 5. NK cells were purified from buffy coats of normal blood donors by immunomagnetic selection (CD3 depletion followed by CD56 selection) using the autoMACS (Milteny Biotec, Auburn, Calif.). Purified NK cells were cultured in RPMI medium with 10% human AB serum for 72 hours in the presence or absence of lenalidomide. NK cells were then assayed for receptor expression by flow-cytometry.

[5] = test system: activating ligands MICA, MICA/B, DR4, DR5, ULBP1, ULBP2, PVR and Nectin-2 (CD112) in U266 cells; experiment: Expression of activating ligands on U266 cells by flow-cytometry (FIG. 7, FIG. 8); settings: lenalidomide 5 μM for 5 days; at least 4 independent experiments; paired t-test
Procedure: Briefly, U266 cells were cultured in complete medium in the presence or absence of lenalidomide (5 μM) for 5 days.
In this experiment U266 cells were analyzed as described as in the above. The data were analyzed using the paired t-test.

## 1-7F9 (antibody)
KIR2DL3 (human)
  specific lysis of U266 cells by PBMC, Europium release cytotoxicity assay, E:T ratio of 60:1 (% specific lysis): 32
KIR2DL2 (human)
  specific lysis of U266 cells by PBMC, Europium release cytotoxicity assay, E:T ratio of 60:1 (% specific lysis): 32
KIR2DL1 (human)
  specific lysis of U266 cells by PBMC, Europium release cytotoxicity assay, E:T ratio of 60:1 (% specific lysis): 32

## Nc1cccc2c1CN(C1CCC(=O)NC1=O)C2=O (stereo not drawn) [lenalidomide, 3-(4-amino-1-oxo-1,3 dihydro-isoindol-2-yl)piperidine-2,6-dione]
U266 cells [1]
  susceptibility of U266 target cells to lysis by NK cells: more susceptible to lysis
U266 cells [2]; E:T ratio 60:1, PBMC treated 72 hours with lenalidomide 10 μmolL^−1 or DMSO, 1-7F9 30 μg/ml, DMSO control 19±4%
  specific lysis of U266 cells: 27±1.3%
U266 cells [2]; PBMC treated with 10 μM lenalidomide for 72 h without IL-2, vs DMSO, different E:T ratios
  killing of U266 cells by PBMC (percent of specific release): enhanced cytotoxicity
U266 cells [2]; PBMC treated with 10 μmolL^−1 lenalidomide for 72 hours with or without interleukin (IL)-2
  NK cell induced lysis of U266 cells: increased
NK cells
  total NK cell numbers in the culture: essentially the same
[3]
  phospho-p44/42 (Erk1/2) Thr202/Tyr204)/GAPDH: 0.98
p-SHIP1 (Tyr1020)
  P-SHIP1(Tyr1020)/GAPDH: 1.76
[4]
  NK cell receptor expression (NKG2D, NKG2A, KIR2DL1, KIR2DL2/3): no effect
[5]
  expression of activating ligands on U266 cells: significantly increase the expression of only MICA, DR4, ULBP2, and CD112
